Consider 24 compounds from the NIST ThermoML archive (doi:10.1016/j.tca.2005.04.019).

Numbers after ± are expanded uncertainties.

For data set [1] the following is noted: DTA.
Data set [2] in a line: Molar enthalpy of transition or fusion. The note with it: DSC.

For the compound `CCCCCCCCCC[NH2+]CCCCCCCCCC.O=P([O-])(O)O` [N-decyldecan-1-aminium dihydrogen phosphate], in data set [1] (Crystal 2), the Triple point temperature turned out to be 354.1 ± 3 K. In addition, the “Molar enthalpy of transition or fusion” value in data set [2] (Crystal 2) was 14.6 ± 0.478 kcal/mol.

With `CCCCCCCCCCCC[NH2+]CCCCCCCCCCCC.[Br-]` [N-dodecyldodecan-1-aminium bromide], the Triple point temperature in data set [1] (Crystal 2) is given as 346.1 ± 3 K. For the same compound, the “Molar enthalpy of transition or fusion” value in data set [2] (Crystal 2) was 11.7 ± 0.263 kcal/mol.

For the compound `CCCCCCCC[NH2+]CCCCCCCC.[Br-]` [N-octyloctan-1-aminium bromide], the Triple point temperature in data set [1] (Crystal 2) turned out to be 303.1 ± 5 K. The “Molar enthalpy of transition or fusion” value in data set [2] (Crystal 2) is 5.98 ± 0.239 kcal/mol.

Turning to `CCCCCCCCCCCCCCCCCC[NH2+]CCCCCCCCCCCCCCCCCC.O=S(=O)([O-])O` [N-octadecyloctadecan-1-aminium hydrogen sulfate], the Triple point temperature came to 355.1 ± 3 K in data set [1] (Crystal 2) and 343.1 ± 3 K in data set [1] (Crystal 3). The “Molar enthalpy of transition or fusion” value in data set [2] (Crystal 3) was found to be 26.1 ± 0.717 kcal/mol.

Take `CCCCCCCCCCCCCCCCCC[NH2+]CCCCCCCCCCCCCCCCCC.[Cl-]` [N-octadecyloctadecan-1-aminium chloride]: in data set [1] (Crystal 2), the Triple point temperature was found to be 364.35 ± 3 K. For the same compound, the “Molar enthalpy of transition or fusion” value in data set [2] (Crystal 2) stood at 23.2 ± 0.478 kcal/mol.

For the compound `CCCCCCCCCCCC[NH2+]CCCCCCCCCCCC.[Cl-]` [N-dodecyldodecan-1-aminium chloride], in data set [1] (Crystal 2), the Triple point temperature came out at 338.1 ± 3 K. In addition, the “Molar enthalpy of transition or fusion” value in data set [2] (Crystal 2) was 11.5 ± 0.239 kcal/mol.

Regarding `CCCCCCCC[NH2+]CCCCCCCC.[I-]` [N-octyloctan-1-aminium iodide], the Triple point temperature in data set [1] (Crystal 2) came out at 271.1 ± 1 K; in data set [1] (Crystal 3) it was 267.1 ± 1 K. For the same compound, the “Molar enthalpy of transition or fusion” value in data set [2] (Crystal 3) came to 5.02 ± 0.239 kcal/mol.

Take `CCCCCCCC[NH2+]CCCCCCCC.[O-][Cl+3]([O-])([O-])[O-]` [N-octyloctan-1-aminium perchlorate]: in data set [1] (Crystal 2), the Triple point temperature is on record as 296.1 ± 10 K. Further, the “Molar enthalpy of transition or fusion” value in data set [2] (Crystal 2) was determined as 8.84 ± 0.478 kcal/mol.

On to `CCCCCCCCCCCC[NH2+]CCCCCCCCCCCC.O=[N+]([O-])[O-]` [N-dodecyldodecan-1-aminium nitrate], for which, in data set [1] (Crystal 2), the Triple point temperature was found to be 339.1 ± 3 K. In data set [2] (Crystal 2), the “Molar enthalpy of transition or fusion” value came to 18.4 ± 0.239 kcal/mol.

Consider `CCCCCCCCCC[NH2+]CCCCCCCCCC.O=[N+]([O-])[O-]` [N-decyldecan-1-aminium nitrate], for which the Triple point temperature in data set [1] (Crystal 2) was 333.1 ± 3 K. Further, the “Molar enthalpy of transition or fusion” value in data set [2] (Crystal 2) was 15.3 ± 0.239 kcal/mol.

For `CCCCCCCCCC[NH2+]CCCCCCCCCC.[Cl-]` [didecylammonium chloride], the Triple point temperature in data set [1] (Crystal 2) is 321.1 ± 3 K. For the same compound, the “Molar enthalpy of transition or fusion” value in data set [2] (Crystal 2) worked out at 9.56 ± 0.239 kcal/mol.

For the compound `CCCCCCCC[NH2+]CCCCCCCC.O=[N+]([O-])[O-]` [N-octyloctan-1-aminium nitrate], the Triple point temperature in data set [1] (Crystal 2) is recorded as 318.1 ± 3 K. In addition, the “Molar enthalpy of transition or fusion” value in data set [2] (Crystal 2) worked out at 12.8 ± 0.239 kcal/mol.

Regarding `CCCCCCCC[NH2+]CCCCCCCC.O=S(=O)([O-])O` [dioctylammonium hydrogen sulfate], the Triple point temperature in data set [1] (Crystal 2) is reported as 463.15 ± 3 K; in data set [1] (Crystal 3), 371.1 ± 3 K; in data set [1] (Crystal 4) it was 289.1 ± 3 K. Besides, the “Molar enthalpy of transition or fusion” value in data set [2] (Crystal 2) was 1.15 ± 0.717 kcal/mol; in data set [2] (Crystal 3) it was 0.335 ± 0.0717 kcal/mol; in data set [2] (Crystal 4), 0.98 ± 0.0478 kcal/mol.

On to `CCCCCCCCCCCC[NH2+]CCCCCCCCCCCC.[O-][Cl+3]([O-])([O-])[O-]` [N-dodecyldodecan-1-aminium perchlorate], for which the Triple point temperature in data set [1] (Crystal 2) was 335.1 ± 3 K. In addition, the “Molar enthalpy of transition or fusion” value in data set [2] (Crystal 2) was 17.2 ± 0.478 kcal/mol.

For the compound `CCCCCCCCCCCC[NH2+]CCCCCCCCCCCC.O=S(=O)([O-])O` [N-dodecyldodecan-1-aminium hydrogen sulfate], the Triple point temperature stood at 373.1 ± 3 K in data set [1] (Crystal 2) and 347.1 ± 3 K in data set [1] (Crystal 3). In addition, the “Molar enthalpy of transition or fusion” value in data set [2] (Crystal 3) was 7.17 ± 0.478 kcal/mol.

For `CCCCCCCCCCCCCCCCCC[NH2+]CCCCCCCCCCCCCCCCCC.O=[N+]([O-])[O-]` [N-octadecyloctadecan-1-aminium nitrate], the Triple point temperature in data set [1] (Crystal 2) worked out at 366.65 ± 3 K. In data set [2] (Crystal 2), the “Molar enthalpy of transition or fusion” value was found to be 26.1 ± 0.717 kcal/mol.

`CCCCCCCC[NH2+]CCCCCCCC.O=P([O-])(O)O` [N-octyloctan-1-aminium dihydrogen phosphate]: in data set [1] (Crystal 2), the Triple point temperature is listed as 333.1 ± 3 K.

As for `CCCCCCCCNCCCCCCCC.Cl` [N-octyl-1-octaminium hydrochloride], the Triple point temperature in data set [1] (Crystal 2) is listed as 294.1 ± 3 K. In data set [2] (Crystal 2), the “Molar enthalpy of transition or fusion” value came to 8.84 ± 0.239 kcal/mol.

For `CCCCCCCCCCCCCCCCCC[NH2+]CCCCCCCCCCCCCCCCCC.[Br-]` [N-octadecyloctadecan-1-aminium bromide], the Triple point temperature in data set [1] (Crystal 2) is reported as 371.15 ± 3 K. Besides, the “Molar enthalpy of transition or fusion” value in data set [2] (Crystal 2) was found to be 19.4 ± 0.478 kcal/mol.

With `CCCCCCCCCC[NH2+]CCCCCCCCCC.[Br-]` [N-decyldecan-1-aminium bromide], the Triple point temperature in data set [1] (Crystal 2) was 330.1 ± 3 K. Also, the “Molar enthalpy of transition or fusion” value in data set [2] (Crystal 2) stood at 9.08 ± 0.478 kcal/mol.

As to `CCCCCCCCCCCCCCCCCC[NH2+]CCCCCCCCCCCCCCCCCC.[O-][Cl+3]([O-])([O-])[O-]` [N-octadecyloctadecan-1-aminium perchlorate], the Triple point temperature in data set [1] (Crystal 2) is recorded as 361.25 ± 3 K. Also, in data set [2] (Crystal 2), the “Molar enthalpy of transition or fusion” value worked out at 27.49 ± 0.239 kcal/mol.

`CCCCCCCCCCCC[NH2+]CCCCCCCCCCCC.[I-]` [N-dodecyldodecan-1-aminium iodide]: the Triple point temperature in data set [1] (Crystal 2) was 338.1 ± 3 K. For the same compound, the “Molar enthalpy of transition or fusion” value in data set [2] (Crystal 2) amounted to 9.2 ± 0.239 kcal/mol.

Turning to `CCCCCCCCCCCCCCCCCC[NH2+]CCCCCCCCCCCCCCCCCC.[I-]` [N-octadecyloctadecan-1-aminium iodide], the Triple point temperature in data set [1] (Crystal 2) was 366.15 ± 3 K. Moreover, the “Molar enthalpy of transition or fusion” value in data set [2] (Crystal 2) was 17.9 ± 0.717 kcal/mol.

`CCCCCCCCCCCC[NH2+]CCCCCCCCCCCC.O=P([O-])(O)O` [N-dodecyldodecan-1-aminium dihydrogen phosphate]: the Triple point temperature stood at 363.1 ± 3 K in data set [1] (Crystal 2) and 328.1 ± 3 K in data set [1] (Crystal 3). The “Molar enthalpy of transition or fusion” value in data set [2] (Crystal 2) was found to be 19.8 ± 0.717 kcal/mol.
